Results: patent US11291625B2, “Antimicrobial compositions and methods for reducing microbial contamination” (PolyVation B.V., priority 2015, dated 2022)

Test: BKC / BEZ release assay from polymer film with aqueous BPB solution
Assay type: physicochemical
Conditions: for release from 0.45% biocide coating without copolymer upon addition of the BPB solution: reference, no polymer
Experimental: The different 5 wt % polymer formulations were supplemented with 0.45 wt % BKC and 20 μl coated to the first well of each row of a 96-well plate. After evaporation of the solvent (2-propanol), 100 μl of an aqueous BPB ([…]) solution (25×10^−3 mmol/L) was added to the coated wells and the plate was incubated for 30 seconds at room temperature. Next, the aqueous phase was removed from the well and the formation of blue BPB-BKC complexes was assessed by visual inspection. This process was repeated until blue BPB-BKC complexes were no longer observed, and the number of repeated BPB incubation steps was recorded.
The slow release properties of the PVPM20, PVPMDM, PVPMEM and PVPDDM co-polymer formulations were verified in a BKC and a BEZ release test that were performed in 96-well plates. The different polymer formulations (i.e. PVPM20-85:15, PVPM20-80:20, PVPM20-65:35, PVPMDM-60:40, PVPMDM-75:25, PVPMEM-80:20 and PVPDDM-80:20 in 2-propanol at 2.5 wt % were supplemented with 0.45 wt % BKC or BEZ. 20 μl was coated to the first well of each row of a 96-well plate. After evaporation of the 2-propanol solvent, 100 μl of an aqueous BPB solution (25×10^−3 mmol/L) was added to the coated wells and the plate was incubated for 30 seconds at room temperature. BPB forms a blue complex with free BKC and free BEZ when it is released from the polymer film into an aqueous solution. Of note, the BPB-BKC or BPB-BEZ complex is blue, whereas the BPB solution itself is purple (20). Next, the aqueous phase was removed from the well and the formation of blue BPB-BKC or BPB-BEZ complexes was assessed by visual inspection. This process was repeated until blue BPB-BKC complexes were no longer observed, and the number of repeated BPB incubation steps was recorded.
The number of cycles needed to release readily detectable amounts of BKC or BEZ was used as a measure to assess the BKC-retaining or BEZ-retaining properties of the different polymer formulations.

| Molecule | Test2 (BEZ): Number of incubations after which BEZ was no longer detectable (0.45 wt % BEZ, 30 seconds incubations with aqueous BPB solution, room temperature) [x] | release from 0.45% biocide coating without copolymer upon addition of the BPB solution | Test1 (BKC): Number of incubations after which BKC was no longer detectable (0.45 wt % BKC, 30 seconds incubations with aqueous BPB solution, room temperature) [x] |
| --- | --- | --- | --- |
| CC(C)(C)CC(C)(C)c1ccc(OCCOCC[N+](C)(C)Cc2ccccc2)cc1 [BEZ only, benzethonium chloride] | 1 | dissolved instantaneously | – |
| benzalkonium chloride [BKC only] | – | dissolved instantaneously | 1 |
